Earlier results, collected in US20220160797A1 (North Carolina State University, priority 2019, published 2022).

Test system: L. acidophilus NCFM
Settings: grown on esculin compared to lactose

O=c1ccc2cc(O[C@@H]3O[C@H](CO)[C@@H](O)[C@H](O)[C@H]3O)c(O)cc2o1 [esculin]
up-regulation of gene lba0753: 2.3 log2
